# Assays:
# [1] = Compound 1, Form 1 and Form 5 interconversion study (slurry in saturated solutions, XRPD); type: physicochemical; conditions: conclusion from Table 5 interconversion study
# Description: Saturated solutions of Compound 1, Form 1, in EtOH, MTBE, and isopropyl acetate at 50° C. were prepared. About 6 mg of Compound 1, Form 1, and Compound 1, Form 5, were weighed into each saturated solutions, and the resulting suspensions were slurried for 2 days at corresponding temperature. The resulting solids were sampled for XRPD analysis.
# [2] = Solid form stability under humidity or vacuum/heat; type: physicochemical
# Description: Treatment of Form 5 at 40° C., 75% relative humidity for 6 days provided mainly Form 4.
# Treatment of Form 4 at 50° C. under vacuum and inert atmosphere for 5 days provided mainly Form 4.
smiles,measurement,setting,value
"CNc1nc(NC2CCN(Cc3ccc4c(cc(C#N)n4C[C@H](C)N4CCN(S(C)(=O)=O)CC4)c3C)CC2)c2cc(CC(F)(F)F)sc2n1 [Compound 1, Form 1, (S)-4-methyl-5-((4-((2-(methylamino)-6-(2,2,2-trifluoroethyl)thieno[2,3-d]pyrimidin-4-yl)amino)piperidin-1-yl)methyl)-1-(2-(4-(methylsulfonyl)piperazin-1-yl)propyl)-1H-indole-2-carbonitrile]",Thermodynamic stability of crystalline form,[1],thermodynamically stable crystalline form
"CNc1nc(NC2CCN(Cc3ccc4c(cc(C#N)n4C[C@H](C)N4CCN(S(C)(=O)=O)CC4)c3C)CC2)c2cc(CC(F)(F)F)sc2n1 [Compound 1, Form 4, (S)-4-methyl-5-((4-((2-(methylamino)-6-(2,2,2-trifluoroethyl)thieno[2,3-d]pyrimidin-4-yl)amino)piperidin-1-yl)methyl)-1-(2-(4-(methylsulfonyl)piperazin-1-yl)propyl)-1H-indole-2-carbonitrile]",Solid form after treatment,"[2]; 50° C. under vacuum and inert atmosphere, 5 days",mainly Form 4
"CNc1nc(NC2CCN(Cc3ccc4c(cc(C#N)n4C[C@H](C)N4CCN(S(C)(=O)=O)CC4)c3C)CC2)c2cc(CC(F)(F)F)sc2n1 [Compound 1, Form 5, (S)-4-methyl-5-((4-((2-(methylamino)-6-(2,2,2-trifluoroethyl)thieno[2,3-d]pyrimidin-4-yl)amino)piperidin-1-yl)methyl)-1-(2-(4-(methylsulfonyl)piperazin-1-yl)propyl)-1H-indole-2-carbonitrile]",Solid form after treatment,"[2]; 40° C., 75% relative humidity, 6 days",mainly Form 4

# Source: patent US12410184B2, “Crystalline forms of a menin inhibitor” (Kura Oncology, Inc., priority 2023, dated 2025)
